Results published in ChEMBL document CHEMBL5150012, “N-Substituted Valiolamine Derivatives as Potent Inhibitors of Endoplasmic Reticulum α-Glucosidases I and II with Antiviral Activity” (J Med Chem, 2021).

Assays:
[1] = Inhibition of full length human recombinant Endoplasmic reticulum alpha-glucosidase 1 expressed in Escherichia coli using trisaccharide as substrate incubated for 60 mins
[2] = Inhibition of full length N-terminal his6-tagged mouse recombinant Endoplasmic reticulum alpha-glucosidase 2 expressed in DH10 Escherichia coli using Fluorogenic 1,4-methyl-lumbelliferon as substrate preincubated for 60 mins followed by substrate addition and measured after 30 mins
[3] = Cytotoxicity against African green monkey Vero cells assessed as reduction in cell viability incubated for 3 to 5 days by Cell titer-glo luminescent assay; format: toxicity, cell-based; conditions: chlorocebus sabaeus, time 3-5 day
SARS-CoV-2 = experiment: Antiviral activity against SARS-CoV-2 England/2/2022 assessed as reduction in viral infection; format: functional, organism-based; conditions: Severe acute respiratory syndrome coronavirus 2, England/2/2022
Dengue virus type 2 = experiment: Antiviral activity against DENV New Guinea C strain infected in African green monkey Vero cells assessed as reduction in viral infection measured after 5 days by plaque assay; conditions: 120 h
[4] = Selectivity index, ratio of CC50 for cytotoxicity against African green monkey Vero cells to IC50 for antiviral activity against DENV New Guinea C strain infected in African green monkey Vero cells; format: toxicity, cell-based; conditions: read-out: Ratio CC50/IC50

SMILES	IC50 [1] [µM]	IC50 [2] [µM]	CC50 [3] [µM]	IC50 (SARS-CoV-2) [µM]	IC50 (Dengue virus type 2) [µM]	selectivity ratio [4]
O=[N+]([O-])c1cc(-c2ncccn2)ccc1NCCCCCCN[C@H]1C[C@](O)(CO)[C@@H](O)[C@H](O)[C@H]1O	0.644	0.0011	762	70	105	
[N-]=[N+]=Nc1ccc(NCCCCCCN[C@H]2C[C@](O)(CO)[C@@H](O)[C@H](O)[C@H]2O)c([N+](=O)[O-])c1	0.73	0.0337	122	12.3	1.38	88
CCCCN1C[C@H](O)[C@@H](O)[C@H](O)[C@H]1CO				42.2		
[N-]=[N+]=Nc1ccc(NCCCCN[C@H]2C[C@](O)(CO)[C@@H](O)[C@H](O)[C@H]2O)c([N+](=O)[O-])c1	2.42	1.01	1020	9.48	61.4	
N[C@H]1C[C@](O)(CO)[C@@H](O)[C@H](O)[C@H]1O [VALIOLAMINE]	87.4	> 100	831	> 1000	> 1000	
CCCCN[C@H]1C[C@](O)(CO)[C@@H](O)[C@H](O)[C@H]1O	29.5		> 1000		158	
O=[N+]([O-])c1cc(-n2cnnn2)ccc1NCCCCCCN[C@H]1C[C@](O)(CO)[C@@H](O)[C@H](O)[C@H]1O	32	1.42	1360		> 1000	
[N-]=[N+]=Nc1ccc(NCCOC(=O)NCCN[C@H]2C[C@](O)(CO)[C@@H](O)[C@H](O)[C@H]2O)c([N+](=O)[O-])c1	1.13		> 1000	53.7	> 1000	
O=[N+]([O-])c1cc(-n2nccn2)ccc1NCCCCCCN[C@H]1C[C@](O)(CO)[C@@H](O)[C@H](O)[C@H]1O	0.0479	< 0.001	126	> 100	18.2	6.9
COCCCCCCCCCN[C@H]1C[C@](O)(CO)[C@@H](O)[C@H](O)[C@H]1O	10.8	0.49	1070	270	75.9	
[N-]=[N+]=Nc1ccc(NCCOCCN[C@H]2C[C@](O)(CO)[C@@H](O)[C@H](O)[C@H]2O)c([N+](=O)[O-])c1	3.66	37	1750		293	
O=[N+]([O-])c1cc(-n2ccnn2)ccc1NCCCCCCN[C@H]1C[C@](O)(CO)[C@@H](O)[C@H](O)[C@H]1O	1.27	0.0155	1380	292	13.5	102
